The record followed here is patent US9586903B2, “Isoquinoline derivatives” (Hoffmann-La Roche Inc., priority 2013, dated 2017).

The structures appear in SMILES notation.

The first assay concerns human embryonic stem cell derived neural stem cells (NSCs). Put plainly: Neural stem cell proliferation assay (neurogenesis assay, ATP/CellTiterGlo readout). Type of assay: cell-based. To be noted: Homo sapiens, Neural stem cell, 96 h; Table 1, novel compounds; concentration at which 150% activity of control (100%) is reached; 4 days incubation. As to the method:
Neural Stem Cell Proliferation Assay
Neurogenic properties of small molecules are determined based on the proliferation of human embryonic stem cell derived neural stem cells (NSCs) which were derived via a dual smad inhibition as previously described (Chambers, S. M., et al., Highly efficient neural conversion of human ES and iPS cells by dual inhibition of SMAD signaling, Nature biotechnology, 2009. 27(3): p. 275-80.)
Compounds respond is measured by the increase in cells based on ATP levels (Promega:CellTiterGlo®) after an incubation period of 4 days.
NSCs are thawed and expanded over 3 passages. On the 14th day, NSCs are seeded in Polyornithin/Laminin coated 384 well plates at a cell density of 21′000 cells/cm^2 in a media volume of 38 μl.
4 hours after cell seeding, compound solutions are added at a volume of 2 μl. Stock solutions of the compounds (water, 5% DMSO) are diluted to obtain a dose response (11 points, dilution factor is 2), ranging from 8 μM to 8 nM. Controls are run to consistently determine the neurogenic properties of the cells:
Negative (neutral) control is cell culture Media (final DMSO concentration: 0.25%).
1. cell culture Media+100 ng/ml FGF2 (final DMSO concentration: 0.1%)
2. cell culture Media+20 ng/ml EGF (final DMSO concentration: 0.1%)
3. cell culture Media+100 ng/ml Wnt3a (final DMSO concentration: 0.1%)
After 4 days incubation at 37° C., 5% CO2, the amount of ATP per well is quantified. The ATP concentration is proportional to the cell number. ATP is quantified by using the Promega CellTiterGlo® kit. The CellTiterGlo® reagents contain a cell lysis buffer, a thermo stable luciferase (UltraGlo™ recombinant luciferase), magnesium and luciferin. Luciferin reacts with ATP producing oxyluciferin, AMP and light. The luminescence signal is proportional to the ATP content.
The value of negative (neutral) control is determined for each assay plate by taking the average of 16 negative control wells. The neurogenic compound response is calculated for each compound as (compound/Negative Control)*100.
The values of EC150 from the dose response curve are determined for each test compound. The EC150 is the compound concentration at which 150% activity of control (100%) is reached.
As to `CC(C)(C)NC(=O)c1ccc2cncc(-c3ccc(Cl)cc3)c2c1` [Example 23, N-tert-Butyl-4-(4-chlorophenyl)isoquinoline-6-carboxamide], the EC (150% of control) was 0.73 µM.

`Cn1cc(NC(=O)c2ccc3cncc(-c4ccc(Cl)cc4)c3c2)cn1` [Example 26, 4-(4-Chlorophenyl)-N-(1-methyl-1H-pyrazol-4-yl)isoquinoline-6-carboxamide]: the EC (150% of control) came out at 0.32 µM.

For the compound `O=C(Nc1ccccc1)c1ccc2cncc(-c3ccc(Cl)cc3)c2c1` [Example 13, 4-(4-Chlorophenyl)-N-phenylisoquinoline-6-carboxamide], the EC (150% of control) stood at 0.71 µM.

Compound `O=C(NCc1ccccc1)c1ccc2cncc(-c3ccc(Cl)cc3)c2c1` [Example 2, N-benzyl-4-(4-chlorophenyl)isoquinoline-6-carboxamide] registered an EC (150% of control) of 0.09 µM.

As to `CC(C)(C)CNC(=O)c1ccc2cncc(-c3ccc(Cl)cc3)c2c1` [Example 4, 4-(4-Chloro-phenyl)-isoquinoline-6-carboxylic acid (2,2-dimethyl-propyl)-amide], the EC (150% of control) was 0.19 µM.

In turn, `CS(=O)(=O)c1cccc(CNC(=O)c2ccc3cncc(-c4ccc(Cl)cc4)c3c2)c1` [Example 12, 4-(4-Chlorophenyl)-N-(3-(methylsulfonyl)benzyl)isoquinoline-6-carboxamide] gave an EC (150% of control) of 0.1 µM.

`O=C(NCCC(F)(F)F)c1ccc2cncc(-c3ccc(Cl)cc3)c2c1` [Example 24, 4-(4-Chlorophenyl)-N-(3,3,3-trifluoropropyl)isoquinoline-6-carboxamide] yielded an EC (150% of control) of 0.06 µM.

The compound `O=C(c1ccc2cncc(-c3ccc(Cl)cc3)c2c1)N1CCS(=O)(=O)CC1` [Example 3, [4-(4-Chloro-phenyl)-isoquinolin-6-yl]-(1,1-dioxo-thiomorpholin-4-yl)-methanone] showed an EC (150% of control) of 0.16 µM.

Regarding `N#Cc1ccc(-c2cncc3ccc(C(N)=O)cc23)cc1` [Example 30, 4-(4-Cyanophenyl)isoquinoline-6-carboxamide], the EC (150% of control) stood at 0.03 µM.

`CS(=O)(=O)NNC(=O)c1ccc2cncc(-c3ccc(Cl)cc3)c2c1` [Example 25, N′-(4-(4-Chlorophenyl)isoquinoline-6-carbonyl)methanesulfonohydrazide] gave an EC (150% of control) of 0.02 µM.

As for `O=C(NC1CCOC1)c1ccc2cncc(-c3ccc(Cl)cc3)c2c1` (stereo not shown) [Example 16, 4-(4-Chlorophenyl)-N-(tetrahydrofuran-3-yl)isoquinoline-6-carboxamide], the EC (150% of control) stood at 0.76 µM.

Regarding `CC(NC(=O)c1ccc2cncc(-c3ccc(Cl)cc3)c2c1)c1cccc(S(C)(=O)=O)c1` (stereo not shown) [Example 27, 4-(4-Chlorophenyl)-N-(1-(3-(methylsulfonyl)phenyl)ethyl)isoquinoline-6-carboxamide], the EC (150% of control) was determined as 0.79 µM.

`NC(=O)c1ccc2cncc(-c3ccc(Cl)nc3)c2c1` [Example 32, 4-(6-Chloropyridin-3-yl)isoquinoline-6-carboxamide] showed an EC (150% of control) of 0.02 µM.

`O=C(NC1CC1)c1ccc2cncc(-c3ccc(Cl)cc3)c2c1` [Example 5, 4-(4-Chlorophenyl)-N-cyclopropylisoquinoline-6-carboxamide] had an EC (150% of control) of 0.03 µM.

For the compound `O=C(NCc1cccnc1)c1ccc2cncc(-c3ccc(Cl)cc3)c2c1` [Example 8, 4-(4-Chlorophenyl)-N-(pyridin-3-ylmethyl)isoquinoline-6-carboxamide], the EC (150% of control) is 0.08 µM.

On to `COc1ccccc1CNC(=O)c1ccc2cncc(-c3ccc(Cl)cc3)c2c1` [Example 10, 4-(4-Chlorophenyl)-N-(2-methoxybenzyl)isoquinoline-6-carboxamide], for which the EC (150% of control) is 0.09 µM.

As to `O=C(c1ccc2cncc(-c3ccc(Cl)cc3)c2c1)N1CCOCC1` [Example 18, (4-(4-Chlorophenyl)isoquinolin-6-yl)(morpholino)methanone], the EC (150% of control) stood at 0.38 µM.

Consider `CN(CC1CC1)C(=O)c1ccc2cncc(-c3ccc(Cl)cc3)c2c1` [Example 21, 4-(4-Chlorophenyl)-N-(cyclopropylmethyl)-N-methylisoquinoline-6-carboxamide], for which the EC (150% of control) turned out to be 0.21 µM.

Consider `O=C(c1ccc2cncc(-c3ccc(Cl)cc3)c2c1)N1CCC(O)C1` (stereo not shown) [Example 22, (4-(4-Chlorophenyl)isoquinolin-6-yl)(3-hydroxypyrrolidin-1-yl)methanone], for which the EC (150% of control) turned out to be 0.28 µM.

In the case of `O=C(NCc1ccccc1)c1ccc2cncc(-c3ccncc3)c2c1` [Example 1, N-Benzyl-4-(pyridin-4-yl)isoquinoline-6-carboxamide], the EC (150% of control) came out at 0.07 µM.

`O=C(NCc1ccccn1)c1ccc2cncc(-c3ccc(Cl)cc3)c2c1` [Example 11, 4-(4-Chlorophenyl)-N-(pyridin-2-ylmethyl)isoquinoline-6-carboxamide] had an EC (150% of control) of 0.09 µM.

`CC(C)(CO)NC(=O)c1ccc2cncc(-c3ccc(Cl)cc3)c2c1` [Example 17, 4-(4-Chlorophenyl)-N-(1-hydroxy-2-methylpropan-2-yl)isoquinoline-6-carboxamide] gave an EC (150% of control) of 2.5 µM.

For the compound `O=C(NCC(F)(F)F)c1ccc2cncc(-c3ccc(Cl)cc3)c2c1` [Example 14, 4-(4-Chlorophenyl)-N-(2,2,2-trifluoroethyl)isoquinoline-6-carboxamide], the EC (150% of control) stood at 0.05 µM.

Regarding `CN1CCN(C(=O)c2ccc3cncc(-c4ccc(Cl)cc4)c3c2)CC1` [Example 19, (4-(4-Chlorophenyl)isoquinolin-6-yl)(4-methylpiperazin-1-yl)methanone], the EC (150% of control) worked out at 0.11 µM.

Turning to `O=C(NCC1CC1)c1ccc2cncc(-c3ccc(Cl)cc3)c2c1` [Example 6, 4-(4-Chlorophenyl)-N-(cyclopropylmethyl)isoquinoline-6-carboxamide], the EC (150% of control) turned out to be 0.19 µM.

In the case of `NC(=O)c1ccc2cncc(-c3ccc(Cl)cc3Cl)c2c1` [Example 31, 4-(2,4-Dichlorophenyl)isoquinoline-6-carboxamide], the EC (150% of control) is 0.06 µM.

With `CS(=O)(=O)CCNC(=O)c1ccc2cncc(-c3ccc(Cl)cc3)c2c1` [Example 7, 4-(4-Chlorophenyl)-N-(2-(methylsulfonyl)ethyl)isoquinoline-6-carboxamide], the EC (150% of control) stood at 0.07 µM.

Compound `NC(=O)c1ccc2cncc(C3=CCOCC3)c2c1` [Example 29, 4-(3,6-Dihydro-2H-pyran-4-yl)isoquinoline-6-carboxamide] returned an EC (150% of control) of 0.14 µM.

Consider `CS(=O)(=O)c1ccc(CNC(=O)c2ccc3cncc(-c4ccc(Cl)cc4)c3c2)cc1` [Example 9, 4-(4-chlorophenyl)-N-(4-(methylsulfonyl)benzyl)isoquinoline-6-carboxamide], for which the EC (150% of control) turned out to be 0.85 µM.

As for `CC1(CNC(=O)c2ccc3cncc(-c4ccc(Cl)cc4)c3c2)CCC(=O)N1` (stereo not shown) [Example 20, 4-(4-Chlorophenyl)-N-((2-methyl-5-oxopyrrolidin-2-yl)methyl)isoquinoline-6-carboxamide], the EC (150% of control) stood at 0.18 µM.

Take `CC(C)NC(=O)c1ccc2cncc(-c3ccc(Cl)cc3)c2c1` [Example 15, 4-(4-Chlorophenyl)-N-isopropylisoquinoline-6-carboxamide]: the EC (150% of control) turned out to be 0.98 µM.

`CN(NC(=O)c1ccc2cncc(-c3ccc(Cl)cc3)c2c1)S(C)(=O)=O` [Example 28, N′-(4-(4-Chlorophenyl)isoquinoline-6-carbonyl)-N-methylmethanesulfonohydrazide] gave an EC (150% of control) of 0.39 µM.

Staying with this assay, now noted: Table 2, known compounds; 4 days incubation.
In turn, `NC(=O)c1ccc2cncc(-c3ccc(Cl)cc3)c2c1` [Example 33, 4-(4-Chlorophenyl)isoquinoline-6-carboxamide] yielded an EC (150% of control) of 0.01 µM.

`NC(=O)c1ccc2cncc(-c3ccc(C(F)(F)F)cc3)c2c1` [Example 34, 4-(4-(Trifluoromethyl)phenyl)isoquinoline-6-carboxamide] came in with an EC (150% of control) of 0.02 µM.
